Results: US7846924B2, “Cyanopyrroles” (Wyeth LLC, priority 1999, dated 2010)

Compared with `CC1(C)OC(=O)Nc2ccc(-c3ccc(C#N)[nH]3)cc21` [Example 1, 5-(4,4-Dimethyl-2-oxo-1,4-dihydro-2H-benzo[d][1,3]oxazin-6-yl)-1H-pyrrole-2-carbonitrile], `CCn1c(C#N)ccc1-c1ccc2c(c1)C(C)(C)OC(=O)N2` [Example 6, 5-(4,4-Dimethyl-2-oxo-1,4-dihydro-2H-3,1-benzoxazin-6-yl)-1-ethyl-1H-pyrrole-2-carbonitrile] is lower in melting point: 241 to 242 °C for the first, 200 to 202 °C for the second.

First: CC1(C)C(=O)Nc2ccc(C3(C#N)C=CC=N3)cc21 (stereo not drawn) [Example 3, 2-(3,3-Dimethyl-2-oxo-2,3-dihydro-1H-indol-5-yl)-2-cyanopyrrole]
Second: CC1(C)OC(=O)Nc2ccc(-c3ccc(C#N)n3CC(=O)O)cc21 [Example 9, [2-Cyano-5-(4,4-dimethyl-2-oxo-1,4-dihydro-2H-3,1-benzoxazin-6-yl)-1H-pyrrol-1yl]acetic acid]
The melting point of the first is higher: 255.9 to 257.9 °C for the first, 207 to 209 °C for the second.

First: C#CCn1c(C#N)ccc1-c1ccc2c(c1)C(C)(C)OC(=O)N2 [Example 7, 5-(4,4-dimethyl-2-oxo-1,4-Dihydro-2H-3,1-benzoxazin-6-yl)-1-prop-2-ynyl-1H-pyrrole-2-carbonitrile]
Second: CCCCCn1c(C#N)ccc1-c1ccc2c(c1)C(C)(C)OC(=O)N2 [Example 11, 5-(4,4-Dimethyl-2-oxo-1,4-dihydro-2H-3,1-benzoxazine-6-yl)-1-pentyl-1H-pyrrole-2-carbonitrile]
The melting point of the first is higher: 222 to 224 °C for the first, 128 to 131 °C for the second.

First: CC(C)(C)OC(=O)Cn1c(C#N)ccc1-c1ccc2c(c1)C(C)(C)OC(=O)N2 [Example 8, tert-butyl[2-cyano-5-(4,4-dimethyl-2-oxo-1,4-dihydro-2H-3,1-benzoxazin-6-yl)-1H-pyrrol-1-yl]acetate]
Second: CCOc1cc(CCNC(=O)Cn2c(C#N)ccc2-c2ccc3c(c2)C(C)(C)OC(=O)N3)ccc1OC [Example 10, 2-[2-cyano-5-(4,4-dimethyl-2-oxo-1,4-dihydro-2H-3,1-benzoxazin-6-yl)-1H-pyrrol-1-yl]-N-[2-(3-ethoxy-4-methoxyphenyl)ethyl]acetamide]
The melting point of the first is higher: 188 to 190 °C for the first, 160 to 162 °C for the second.

With `CN1C(=O)OC(C)(C)c2cc(-c3ccc(C#N)[nH]3)ccc21` [Example 12, 5-(1,4,4-trimethyl-2-oxo-1,4-dihydro-2H-3,1-benzoxazin-6-yl)-1H-pyrrole-2-carbonitril] the melting point was 256 to 257 °C (dec.).
